From ChEMBL document CHEMBL1201862, “PubChem BioAssay data set” (2004)
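Five compound concentrations were applied to cells in 96-well plates for 48 hours; endpoints were derived by simple linear interpolation of the resulting dose-response curve. Here, GI50 denotes the concentration required for 50% inhibition of growth.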 Active and inactive are the calls of the source. Cut-off read from the data, not from the text of the source: active = GI50 up to about 1.1 µM and inactive = higher.

What was measured:
Assay in all cases: NCI anticancer screen, dose series, 48 h
786-0 = tested on: 786-0
A498 = tested on: A498
A549 = tested on: A549
ACHN = tested on: ACHN
BT-549 = tested on: BT-549
CAKI-1 = tested on: CAKI-1
CCRF-CEM = tested on: CCRF-CEM
COLO 205 = tested on: COLO 205
DU-145 = tested on: DU-145
EKVX = tested on: EKVX
HCC 2998 = tested on: HCC 2998
HCT-116 = tested on: HCT-116
HCT-15 = tested on: HCT-15
HL-60 = tested on: HL-60
HOP-62 = tested on: HOP-62
HOP-92 = tested on: HOP-92
HT-29 = tested on: HT-29
Hs-578T = tested on: Hs-578T
IGROV-1 = tested on: IGROV-1
KM12 = tested on: KM12
M14 = tested on: M14
MCF7 = tested on: MCF7
MDA-MB-435 = tested on: MDA-MB-435
MDA-N = tested on: MDA-N
MOLT-4 = tested on: MOLT-4
Malme-3M = tested on: Malme-3M
NCI-H23 = tested on: NCI-H23
NCI-H460 = tested on: NCI-H460
NCI-H522 = tested on: NCI-H522
OVCAR-3 = tested on: OVCAR-3
OVCAR-4 = tested on: OVCAR-4
OVCAR-5 = tested on: OVCAR-5
OVCAR-8 = tested on: OVCAR-8
PC-3 = tested on: PC-3
RPMI-8226 = tested on: RPMI-8226
RXF 393 = tested on: RXF 393
SF-268 = tested on: SF-268
SF-295 = tested on: SF-295
SF-539 = tested on: SF-539
SK-MEL-28 = tested on: SK-MEL-28
SK-MEL-5 = tested on: SK-MEL-5
SK-OV-3 = tested on: SK-OV-3
SN12C = tested on: SN12C
SNB-19 = tested on: SNB-19
SNB-75 = tested on: SNB-75
SR = tested on: SR
SW-620 = tested on: SW-620
TK-10 = tested on: TK-10
U-251 = tested on: U-251
UACC-257 = tested on: UACC-257
UACC-62 = tested on: UACC-62
UO-31 = tested on: UO-31
K562 = tested on: K562
LOX IMVI = tested on: LOX IMVI
MDA-MB-231 = tested on: MDA-MB-231
NCI-H226 = tested on: NCI-H226
NCI/ADR-RES = tested on: NCI/ADR-RES
SK-MEL-2 = tested on: SK-MEL-2
T47D = tested on: T47D

`N=C(N)C1CN(CCc2c[nH]cn2)C(=O)NC1=O` (stereo not drawn) was tested, and the GI50 (786-0) was > 100 µM (inactive), the GI50 (A498) was > 100 µM (inactive) and the GI50 (A549) was > 100 µM (inactive). For the same compound, the GI50 (ACHN) was > 100 µM (inactive), the GI50 (BT-549) was > 100 µM (inactive) and the GI50 (CAKI-1) was > 100 µM (inactive). The GI50 (CCRF-CEM) was > 100 µM (inactive), the GI50 (COLO 205) was > 100 µM (inactive) and the GI50 (DU-145) was > 100 µM (inactive). For the same compound, the GI50 (EKVX) was > 100 µM (inactive), the GI50 (HCC 2998) was > 100 µM (inactive) and the GI50 (HCT-116) was > 100 µM (inactive). For the same compound, the GI50 (HCT-15) was greater than 100 µM, the GI50 (HL-60) was > 100 µM (inactive) and the GI50 (HOP-62) was > 100 µM (inactive). The GI50 (HOP-92) was > 100 µM (inactive), the GI50 (HT-29) was > 100 µM (inactive) and the GI50 (Hs-578T) was > 100 µM (inactive). For the same compound, the GI50 (IGROV-1) was > 100 µM (inactive), the GI50 (KM12) was > 100 µM (inactive) and the GI50 (M14) was > 100 µM (inactive). The GI50 (MCF7) was > 100 µM (inactive), the GI50 (MDA-MB-435) was > 100 µM (inactive) and the GI50 (MDA-N) was > 100 µM (inactive). For the same compound, the GI50 (MOLT-4) was > 100 µM (inactive), the GI50 (Malme-3M) was 36 µM (inactive) and the GI50 (NCI-H23) was > 100 µM (inactive). The GI50 (NCI-H460) was > 100 µM (inactive), the GI50 (NCI-H522) was > 100 µM (inactive) and the GI50 (OVCAR-3) was > 100 µM (inactive). The GI50 (OVCAR-4) was > 100 µM (inactive), the GI50 (OVCAR-5) was > 100 µM (inactive) and the GI50 (OVCAR-8) was > 100 µM (inactive). For the same compound, the GI50 (PC-3) was > 100 µM (inactive), the GI50 (RPMI-8226) was > 100 µM (inactive) and the GI50 (RXF 393) was > 100 µM (inactive). The GI50 (SF-268) was > 100 µM (inactive), the GI50 (SF-295) was > 100 µM (inactive) and the GI50 (SF-539) was > 100 µM (inactive). For the same compound, the GI50 (SK-MEL-28) was > 100 µM (inactive), the GI50 (SK-MEL-5) was > 100 µM (inactive) and the GI50 (SK-OV-3) was > 100 µM (inactive). The GI50 (SN12C) was > 100 µM (inactive), the GI50 (SNB-19) was > 100 µM (inactive) and the GI50 (SNB-75) was > 100 µM (inactive). The GI50 (SR) was > 100 µM (inactive), the GI50 (SW-620) was > 100 µM (inactive) and the GI50 (TK-10) was > 100 µM (inactive). For the same compound, the GI50 (U-251) was > 100 µM (inactive), the GI50 (UACC-257) was > 100 µM (inactive) and the GI50 (UACC-62) was > 100 µM (inactive). The GI50 (UO-31) was > 100 µM (inactive).

In the case of `COc1cc2c(cc1OC)OC(c1c(OC)ccc(OC)c1O)CC2` (stereo not drawn), the GI50 (786-0) is reported as > 100 µM (inactive), the GI50 (A498) is reported as > 100 µM (inactive) and the GI50 (A549) is reported as > 100 µM (inactive). For the same compound, the GI50 (ACHN) was 68.7 µM (inactive), the GI50 (BT-549) was > 100 µM (inactive) and the GI50 (CAKI-1) was > 100 µM (inactive). For the same compound, the GI50 (CCRF-CEM) was 22.9 µM (inactive), the GI50 (COLO 205) was 91.4 µM (inactive) and the GI50 (DU-145) was > 100 µM (inactive). The GI50 (EKVX) was > 100 µM (inactive), the GI50 (HCC 2998) was > 100 µM (inactive) and the GI50 (HCT-116) was > 100 µM (inactive). For the same compound, the GI50 (HCT-15) was greater than 100 µM, the GI50 (HL-60) was 20.4 µM (inactive) and the GI50 (HOP-62) was > 100 µM (inactive). For the same compound, the GI50 (HOP-92) was > 100 µM (inactive), the GI50 (HT-29) was > 100 µM (inactive) and the GI50 (Hs-578T) was 53.8 µM (inactive). For the same compound, the GI50 (IGROV-1) was > 100 µM (inactive), the GI50 (K562) was > 100 µM (inactive) and the GI50 (KM12) was > 100 µM (inactive). For the same compound, the GI50 (LOX IMVI) was > 100 µM (inactive), the GI50 (M14) was > 100 µM (inactive) and the GI50 (MCF7) was 78.2 µM (inactive). For the same compound, the GI50 (MDA-MB-231) was > 100 µM (inactive), the GI50 (MDA-MB-435) was > 100 µM (inactive) and the GI50 (MOLT-4) was 71.9 µM (inactive). The GI50 (Malme-3M) was 74 µM (inactive), the GI50 (NCI-H226) was > 100 µM (inactive) and the GI50 (NCI-H23) was > 100 µM (inactive). The GI50 (NCI-H460) was > 100 µM (inactive), the GI50 (NCI/ADR-RES) was > 100 µM (inactive) and the GI50 (OVCAR-3) was 35.1 µM (inactive). The GI50 (OVCAR-4) was 87.3 µM (inactive), the GI50 (OVCAR-5) was > 100 µM (inactive) and the GI50 (OVCAR-8) was > 100 µM (inactive). The GI50 (PC-3) was > 100 µM (inactive), the GI50 (RPMI-8226) was 37.2 µM (inactive) and the GI50 (RXF 393) was > 100 µM (inactive). The GI50 (SF-268) was > 100 µM (inactive), the GI50 (SF-295) was 71.3 µM (inactive) and the GI50 (SF-539) was 73.6 µM (inactive). For the same compound, the GI50 (SK-MEL-28) was > 100 µM (inactive), the GI50 (SK-MEL-2) was > 100 µM (inactive) and the GI50 (SK-MEL-5) was 76.2 µM (inactive). For the same compound, the GI50 (SK-OV-3) was > 100 µM (inactive), the GI50 (SNB-19) was > 100 µM (inactive) and the GI50 (SNB-75) was > 100 µM (inactive). For the same compound, the GI50 (SR) was > 100 µM (inactive), the GI50 (SW-620) was > 100 µM (inactive) and the GI50 (T47D) was 65.8 µM (inactive). The GI50 (TK-10) was 95.3 µM (inactive), the GI50 (U-251) was > 100 µM (inactive) and the GI50 (UACC-257) was > 100 µM (inactive). The GI50 (UACC-62) was > 100 µM (inactive) and the GI50 (UO-31) was > 100 µM (inactive).
